Earlier results as cited in US11202800B1, “Methods for treating emotional cognitive disconnect” (priority 2013, dated 2021).

Key:
[1] = tested on: Ca^2+ plus calmodulin-stimulated reactions; details: in rats
[2] = tested on: Ca^2+ plus calmodulin dependent phosphorylation of synapsin I; details: in rats

[Mg+2] [Mg^2+, magnesium]
Mg^2+ concentration range in which Ca^2+ plus calmodulin-stimulated reactions are maximally active [1]: 30 to 50 mM
Mg^2+ concentration above which Ca^2+ plus calmodulin dependent phosphorylation of synapsin I is progressively inhibited [2]: above 5 mM
